Where “and” joins values, the source holds several entries; their conditions need not be identical. Equal values may be shown once. Read-outs that look alike come from different tables or passages of the source. Marks after values point to notes of the source that are not given here.
Key:
[1] = system: cytochrome P450 2C19 (CYP2C19); design: method as in earlier work; settings: ref 1 Report nos. Be000021–21 and D6244 KMN036, data on file, AstraZeneca; cited from earlier work
[2] = system: UDP glucuronosyltransferase family 1 member A1 (UGT1A1); design: method as in earlier work; settings: ref 1 Report nos. Be000021–21 and D6244 KMN036, data on file, AstraZeneca; cited from earlier work
[3] = Safety and tolerability in Study 86 (Asian study); assay type: in vivo, human
Source text: Safety and tolerability findings obtained from Study 86 were summarized and compared descriptively to the safety and tolerability findings from the studies in Western subjects. Additional safety and tolerability data for the Western studies are reported in detail elsewhere and include references.

[4] = Pooled analysis of non-compartmental plasma PK of single-dose selumetinib in healthy subjects, by ethnicity; assay type: in vivo, human; settings: for DN AUC / DN AUC(0–12) / DN Cmax: geometric mean (%CV)
Experimental: All the studies included in the pooled analysis were conducted in accordance with the ethical principles outlined in the Declaration of Helsinki and the International Council on Harmonization Good Clinical Practice. Written informed consent was obtained from all subjects prior to any study-related procedures.
The pooled analysis database was constructed using data collected in 10 studies (Online Resource 1). PK data were taken from Study 86 (Asian study) and Studies 66, 69, 71, 78, 80, 81, 82, 83 and 85 (Western studies), while pharmacogenetic data were obtained from Study 86 (Asian study) and Studies 66 and 83 (Western studies). Informed consent for genetic assessment was as follows: Study 66, 21 of 27 volunteers gave consent (one of these volunteers discontinued treatments); Study 83, all 26 volunteers gave consent; Study 86, 45 of 72 volunteers gave consent.
Further inclusion criteria for the database included fasted subjects dosed with the selumetinib capsule formulation used for Phase III. This meant exclusion of data from other oral formulations used in study 78 and intravenous formulation used in study 80. Data were included solely from study arms where there was an absence of other treatments (e.g. rifampicin, fluconazole) and from subjects with normal renal and hepatic function.
A merged dataset containing subject identifier, non-compartmental PK parameters and demographics was constructed.
The PK parameters AUC, AUC0–12 and Cmax were normalized (abbreviated as DN) for each subject, by dividing the specific PK parameter by the nominal dose (in mg units) and for dose per kg of body weight (abbreviated as DWN) using the following formula: PK parameter value / (nominal dose in mg units / subjects baseline body weight in kg units).
The majority of subjects in the Western studies were of White ethnicity, thus this formed the reference category for comparison. Statistical comparisons of selumetinib PK were undertaken between the following ethnic groups: Western vs All Asian; White vs Black; White vs All Asian; White vs Japanese; White vs non-Japanese Asian; White vs Indian. The comparisons were performed by fitting multivariate models to the PK parameters of interest (e.g. dose-normalized AUC and Cmax), with a stepwise backward selection of the covariates including ethnicity, age, sex, and weight.
Bioanalysis was performed by Covance, USA. […] After addition of deuterated internal standard, samples were extracted by protein precipitation by the addition of 4 volumes of methanol:acetonitrile. After centrifugation, the supernatants were […] to dryness under nitrogen at 50°C and reconstituted in methanol;water before analysis. Extraction recovery was approximately 93%. […] The typical liquid chromatography system was a Prominence SIL-20AC (Shimadzu, Tokyo, Japan). A Phenomenex Luna C18 column was used and maintained at 30°C. A gradient mobile phase system was used with 0.1% formic acid in water (A) or acetonitrile (B) with a flow rate of 0.500 mL/min and the gradient running from 25% B to 65% B over 2 minutes then increasing to 95% B over 0.1 minutes and held for 0.5 minutes before re-equilibration. The mass spectrometer used was an API 5000 or 5500 triple quadruple mass spectrometer (AB Sciex, Foster City, CA, USA). This was run in positive electrospray, multiple reaction monitoring, with an ionspray voltage of 5500 V and TurboIonSpray temperature of 600°C with transitions of 459.0/397.2 monitored.

[5] = human, in vivo; cited from earlier work
[6] = system: Breast Cancer Resistance Protein (BCRP); design: method as in earlier work; settings: ref 1 Report nos. Be000021–21 and D6244 KMN036, data on file, AstraZeneca; cited from earlier work
[7] = Dose-exposure proportionality of AUC and Cmax (Power model, scatter plots); assay type: in vivo, human
Experimental: Dose-exposure proportionality for AUC and Cmax was assessed for non-Japanese Asian subjects using data from Study 86, and for the pooled analysis Western group by applying the Power model to data from the pooled analysis: Log(Y) = α + β•log(Dose) + ε, where Y = AUC or Cmax. Intercept and slope estimates (including point estimate, standard error, and 90% confidence interval [CI]) were provided for each parameter, and dose proportionality plots were generated for AUC and Cmax. All statistical analyses were performed using SAS version 9.2.

[8] = Study 86, Asian healthy subjects, 25, 35 and 50 mg
[9] = All Asian (N = 72), healthy subjects, single dose, doses pooled
[10] = All Asian group compared with Western group
[11] = Black (N = 87), healthy subjects, single dose, doses pooled
[12] = Indian (N = 9), healthy subjects, single dose
[13] = Japanese (N = 27), healthy subjects, single dose, doses pooled
[14] = Western (N = 236), healthy subjects, single dose, doses pooled
[15] = White (N = 149), healthy subjects, single dose, doses pooled
[16] = non-Japanese Asian (N = 36), healthy subjects, single dose, doses pooled
[17] = non-Japanese Asian compared to White

DN Cmax [4, 9]: 26.3 (30.9) ng/mL/mg
tmax ([4]; All Asian (N = 72), healthy subjects, single dose, median (min, max)): 1.0 (1, 4) h
percentage by which dose-normalized AUC is higher [4, 10]: 35%
percentage by which dose-normalized Cmax is higher [4, 10]: 39%
dose-normalized selumetinib exposure higher ([4]; Asian subjects compared with Western subjects, single dose 25 to 75 mg): 35–39%
DN Cmax [4, 11]: 16.9 (39.6) ng/mL/mg
tmax ([4]; Black (N = 87), healthy subjects, single dose, median (min, max)): 1.0 (1, 4) h
DN Cmax [4, 12]: 28.1 (16.0) ng/mL/mg
tmax ([4]; Indian (N = 9), healthy subjects, single dose, median (min, max)): 1.0 (1, 2) h
percentage increase in geomean dose-normalized AUC ([4]; Indian compared to White): 22%
percentage increase in geomean dose-normalized Cmax ([4]; Indian compared to White): 41%
DN Cmax [4, 13]: 28.7 (31.0) ng/mL/mg
tmax ([4]; Japanese (N = 27), healthy subjects, single dose, median (min, max)): 1.0 (1, 3) h
percentage increase in geomean dose-normalized AUC ([4]; Japanese compared to White): 51%
percentage increase in geomean dose-normalized Cmax ([4]; Japanese compared to White): 45%
t1/2 ([4]; Western (N = 235), healthy subjects, single dose, arithmetic mean (SD)): 9.1 (2.91)^‡ h
DN Cmax [4, 14]: 17.4 (35.6) ng/mL/mg
tmax ([4]; Western (N = 236), healthy subjects, single dose, median (min, max)): 1.0 (1, 4) h
DN Cmax [4, 15]: 17.7 (33.2) ng/mL/mg
tmax ([4]; White (N = 149), healthy subjects, single dose, median (min, max)): 1.0 (1, 4) h
half-life ([4]; human, plasma, oral, 25 mg, Indian (N = 9), healthy subjects, single dose, arithmetic mean (SD)): 9.5 h
half-life ([4]; human, plasma, oral, All Asian (N = 72), healthy subjects, single dose, arithmetic mean (SD)): 10.4 h
half-life ([4]; human, plasma, oral, Black (N = 87), healthy subjects, single dose, arithmetic mean (SD)): 8.7 h
half-life ([4]; human, plasma, oral, Japanese (N = 27), healthy subjects, single dose, arithmetic mean (SD)): 11.5 h
half-life ([4]; human, plasma, oral, White (N = 148), healthy subjects, single dose, arithmetic mean (SD)): 9.3 h
tmax ([4]; human, plasma, oral, all ethnic groups, read-out: median tmax): 1 to 1.6 h
half-life ([4]; human, plasma, oral, non-Japanese Asian (N = 36), healthy subjects, single dose, arithmetic mean (SD)): 9.8 h
tmax ([4]; human, plasma, oral, non-Japanese Asian (N = 36), healthy subjects, single dose, median (min, max), read-out: tmax): 1.6 h
DN Cmax [4, 16]: 24.3 (32.3) ng/mL/mg
differences in the geomeans for dose-normalized AUC and dose-normalized Cmax ([4]; non-Japanese Asian and Indian against Japanese): 2 to 18%
percentage increase in geomean dose-normalized AUC [4, 17]: 37%
percentage increase in geomean dose-normalized Cmax [4, 17]: 20%
dose-exposure proportionality (visual assessment of scatter plots, AUC and Cmax) ([7]; Western group, single doses of 25 to 75 mg): Approximate dose proportionality
dose-exposure proportionality (visual assessment of scatter plots, AUC and Cmax) ([7]; non-Japanese Asian group, 25 to 50 mg): approximate dose proportionality
SMILES: Cn1cnc2c(F)c(Nc3ccc(Br)cc3Cl)c(C(=O)NOCCO)cc21 [selumetinib, Selumetinib]
substrate of enzyme [1]: substrate
substrate of enzyme [2]: substrate
number of AEs reported ([3]; Study 86, Asian healthy subjects): 21
AE leading to discontinuation of selumetinib [3, 8]: no AE led to the discontinuation
serious adverse event [3, 8]: no subject experienced a serious adverse event
safety or tolerability concerns ([3]; Study 86, Asian healthy subjects, any dose level (25, 35 and 50 mg)): no safety or tolerability concerns
number of AEs deemed related to selumetinib by the Investigator ([3]; Study 86, of the 21 AEs reported): 14
DN AUC [4, 9]: 79.8 ng.h/mL/mg and 79.8 (23.6) ng.h/mL/mg
DN AUC(0–12) [4, 9]: 61.7 ng.h/mL/mg and 61.7 (24.6) ng.h/mL/mg
DN AUC [4, 11]: 53.4 ng.h/mL/mg and 53.4 (26.4) ng.h/mL/mg
DN AUC(0–12) [4, 11]: 43.3 ng.h/mL/mg and 43.3 (26.7) ng.h/mL/mg
DN AUC [4, 12]: 69.5 ng.h/mL/mg and 69.5 (16.7) ng.h/mL/mg
DN AUC(0–12) [4, 12]: 53.5 ng.h/mL/mg and 53.5 (19.6) ng.h/mL/mg
DN AUC [4, 13]: 84.8 ng.h/mL/mg and 84.8 (21.0) ng.h/mL/mg
DN AUC(0–12) [4, 13]: 65.7 ng.h/mL/mg and 65.7 (24.1) ng.h/mL/mg
DN AUC ([4]; Western (N = 235), healthy subjects, single dose, doses pooled): 52.4 ng.h/mL/mg and 52.4 (24.9)^‡ ng.h/mL/mg
DN AUC(0–12) [4, 14]: 42.9 ng.h/mL/mg and 42.9 (25.1) ng.h/mL/mg
DN AUC ([4]; White (N = 148), healthy subjects, single dose, 25-75 mg doses pooled): 51.9 ng.h/mL/mg and 51.9 (23.9)^† ng.h/mL/mg
DN AUC(0–12) [4, 15]: 42.7 ng.h/mL/mg and 42.7 (24.2) ng.h/mL/mg
DN AUC [4, 16]: 78.9 ng.h/mL/mg and 78.9 (25.4) ng.h/mL/mg
DN AUC(0–12) [4, 16]: 61.1 ng.h/mL/mg and 61.1 (24.6) ng.h/mL/mg
serious AEs [5]: no serious AEs
substrate of transporter protein [6]: substrate
